Results from the supplement of paper PMC5908809.

Assays:
IMC-1 (IL-2 20 ng/mL) [1] = test: percent inhibition of viability; higher = more inhibition; settings: 72 h
NK-YS (IL-2 2.5 ng/mL) [2] = test: as above; settings: 72 h
DERL-7 (IL-2 2.5 ng/mL) [3] = test: as above; settings: 72 h
KHYG-1 (IL-2 2.5 ng/mL) [4] = test: as above; settings: 72 h
[5] = test system: normal primary NK cells, pool 1 (3 donors) (IL-2 2.5 ng/mL); test: as above; settings: 72 h
[6] = test system: normal primary NK cells, pool 1 (3 donors), resting (IL-2 0 ng/mL); test: as above; settings: 72 h
YT (IL-2 2.5 ng/mL) [7] = test: as above; settings: 72 h
KAI3 (IL-2 2.5 ng/mL) [8] = test: as above; settings: 72 h
[9] = test system: normal primary NK cells, pool 2 (3 donors) (IL-2 2.5 ng/mL); test: as above; settings: 72 h
NKL (IL-2 2.5 ng/mL) [10] = test: as above; settings: 72 h
[11] = test system: normal primary NK cells, pool 3 (3 donors) (IL-2 2.5 ng/mL); test: as above; settings: 72 h
SNK-6 (IL-2 2.5 ng/mL) [12] = test: as above; settings: 72 h
NK-92 (IL-2 2.5 ng/mL) [13] = test: as above; settings: 72 h
IMC-1 (IL-2 20 ng/mL) [14] = test: drug sensitivity score (DSS) (DSS units); higher = more sensitive; extreme values may be limits of the assay; settings: 72 h
NK-YS (IL-2 2.5 ng/mL) [15] = test: as above; settings: 72 h
DERL-7 (IL-2 2.5 ng/mL) [16] = test: as above; settings: 72 h
KHYG-1 (IL-2 2.5 ng/mL) [17] = test: as above; settings: 72 h
[18] = test system: normal primary NK cells, pool 1 (3 donors) (IL-2 2.5 ng/mL); test: as above; settings: 72 h
[19] = test system: normal primary NK cells, pool 1 (3 donors), resting (IL-2 0 ng/mL); test: as above; settings: 72 h
YT (IL-2 2.5 ng/mL) [20] = test: as above; settings: 72 h
KAI3 (IL-2 2.5 ng/mL) [21] = test: as above; settings: 72 h
[22] = test system: normal primary NK cells, pool 2 (3 donors) (IL-2 2.5 ng/mL); test: as above; settings: 72 h
NKL (IL-2 2.5 ng/mL) [23] = test: as above; settings: 72 h
[24] = test system: normal primary NK cells, pool 3 (3 donors) (IL-2 2.5 ng/mL); test: as above; settings: 72 h
SNK-6 (IL-2 2.5 ng/mL) [25] = test: as above; settings: 72 h
NK-92 (IL-2 2.5 ng/mL) [26] = test: as above; settings: 72 h
[27] = test system: normal NK cells expanded with K562-aAPC; test: percent inhibition of viability; higher = more inhibition; settings: 72 h, IL-2 2.5 ng/mL
Description: (§1)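 Drug sensitivity and resistance testing on K562-aAPC-expanded normal NK cells: 5 concentrations (10-fold steps over a 10,000-fold range), 72 h at 37 °C, viability by CellTiter-Glo normalised to DMSO and benzethonium chloride controls; DSS from the fitted curve.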

[28] = test system: normal NK cells expanded with K562-aAPC; test: drug sensitivity score (DSS) (DSS units); higher = more sensitive; extreme values may be limits of the assay; settings: 72 h; IL-2 2.5 ng/mL
Description: as §1

CCCc1cc(C)[nH]c(=O)c1CNC(=O)c1cc(-c2ccnc(N3CCN(C)CC3)c2)cc2c1cnn2C(C)C [GSK343] (max concentration tested 10000 nM)
percent inhibition of viability [%]
Settings	1 nM	10 nM	100 nM	1000 nM	10000 nM
DERL-7 (IL-2 2.5 ng/mL) [3]	3.94	-4.82	3.13	8.76	96.6
IMC-1 (IL-2 20 ng/mL) [1]	-6.79	-3.69	-6.5	-9.82	99.4
KAI3 (IL-2 2.5 ng/mL) [8]	-6.07	-1.68	-2.65	8.26	99.1
KHYG-1 (IL-2 2.5 ng/mL) [4]	0.04	1.72	-6.82	3.86	99.8
NK-92 (IL-2 2.5 ng/mL) [13]	-15.4	-9.54	-9.12	-0.4	98.1
NK-YS (IL-2 2.5 ng/mL) [2]	-5.74	-3.63	-4.33	4.65	101
NKL (IL-2 2.5 ng/mL) [10]	-9.45	-14.8	-10.7	-3.16	99.2
SNK-6 (IL-2 2.5 ng/mL) [12]	-12.3	5.94	-7.63	-6.91	99.4
YT (IL-2 2.5 ng/mL) [7]	-0.53	-1.05	-6.88	3.69	99
[5]	2.11	-6.04	-3.32	7.91	93.1
[6]	-0.38	-4.24	-14.9	10.5	92.6
[9]	-8.31	-4.46	-6.41	-0.99	-0.1
[11]	-4.17	-3.24	-2	-6.83	59.2
[27]	-1.65	-5.79	-7.46	-5.85	99.2

Settings	drug sensitivity score
DERL-7 (IL-2 2.5 ng/mL) [16]	6.76
IMC-1 (IL-2 20 ng/mL) [14]	4.86
KAI3 (IL-2 2.5 ng/mL) [21]	6.8
KHYG-1 (IL-2 2.5 ng/mL) [17]	6.07
NK-92 (IL-2 2.5 ng/mL) [26]	5.45
NK-YS (IL-2 2.5 ng/mL) [15]	6.26
NKL (IL-2 2.5 ng/mL) [23]	5.27
SNK-6 (IL-2 2.5 ng/mL) [25]	5.02
YT (IL-2 2.5 ng/mL) [20]	6
[18]	6.41
[19]	6.86
[22]	0
[24]	2.74
[28]	5.07
